A word on the CC50: it is the concentration at which the toxic effect on the cells reaches its halfway point. Low readings indicate harm at low concentration, high ones better tolerance by the cells.

The source of these data is US20240018123A1, “COMPOUND FOR INHIBITING OR DISINTEGRATING ANDROGEN RECEPTOR, AND PHARMACEUTICAL USE THEREOF” (KOREA RESEARCH INSTITUTE OF CHEMICAL TECHNOLOGY, priority 2020, published 2024).

The structures appear in SMILES notation.

For series [1], the system named is LNCaP cells.
Description: In order to evaluate the androgen receptor (AR) cytotoxicity of the compounds according to the present invention, the following experiment was conducted. Specifically, 1.5×10^3 (LNCaP) or 4×10^3 (VCaP, 22RV1), respectively, of LNCaP, VCaP, and 22RV1 cells were injected into each well of a 96-well plate. The next day, each well was treated with the compound at a final concentration of 3 nM, 10 nM, 30 nM, 100 nM, 300 nM, 1 μM, 3 μM, and 10 μM. […] After 6 days of treatment, Cell-titer-glo (promega) was treated and reacted for 10 minutes, and cell viability was measured with a multimode plate reader (PerkinElmer, Inc.), and the change was quantified compared to when DMSO was treated.
The subject of series [2] is VCaP cells.
Series [3] concerns the target T1, Androgen receptor (AR) (Homo sapiens, UniProt P10275, T878A).
T1 construct: 5.5×10^5 LNCap cells were injected into each well of a 6-well plate; endogenous in cells; host or cells: LNCaP
T1 sequence (P10275 1-920 T878A): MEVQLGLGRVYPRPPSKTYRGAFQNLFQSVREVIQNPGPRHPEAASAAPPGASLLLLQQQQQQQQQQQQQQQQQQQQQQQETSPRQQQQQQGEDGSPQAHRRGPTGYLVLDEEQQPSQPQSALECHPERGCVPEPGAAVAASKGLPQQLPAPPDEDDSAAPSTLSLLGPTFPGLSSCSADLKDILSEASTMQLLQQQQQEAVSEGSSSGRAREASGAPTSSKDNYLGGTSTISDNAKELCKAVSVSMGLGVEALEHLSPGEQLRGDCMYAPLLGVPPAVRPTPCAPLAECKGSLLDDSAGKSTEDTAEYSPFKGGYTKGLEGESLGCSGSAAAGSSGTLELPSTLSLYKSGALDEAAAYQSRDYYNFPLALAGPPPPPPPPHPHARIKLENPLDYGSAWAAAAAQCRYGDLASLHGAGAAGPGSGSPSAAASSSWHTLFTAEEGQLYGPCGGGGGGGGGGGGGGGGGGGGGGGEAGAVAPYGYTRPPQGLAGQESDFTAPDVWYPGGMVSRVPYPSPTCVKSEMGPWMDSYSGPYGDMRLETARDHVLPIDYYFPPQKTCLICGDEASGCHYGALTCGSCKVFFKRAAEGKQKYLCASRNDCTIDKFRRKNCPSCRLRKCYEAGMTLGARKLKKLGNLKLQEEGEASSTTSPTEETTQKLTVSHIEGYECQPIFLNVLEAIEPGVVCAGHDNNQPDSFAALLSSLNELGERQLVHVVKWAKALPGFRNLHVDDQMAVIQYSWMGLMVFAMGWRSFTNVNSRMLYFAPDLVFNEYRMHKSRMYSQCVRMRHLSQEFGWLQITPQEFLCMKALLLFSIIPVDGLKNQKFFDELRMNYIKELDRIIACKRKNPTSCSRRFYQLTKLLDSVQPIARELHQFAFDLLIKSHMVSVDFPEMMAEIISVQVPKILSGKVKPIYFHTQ
Briefly: Assessment of AR proteolytic activity (Western blotting of LNCap cell lysates). Particulars: 24 hours of treatment, Western blotting quantified with Image J. The class given is cell-based. The method in brief:
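LNCap cells seeded at 5.5×10^5 per well and treated with compound for 24 hours. Lysates prepared in RIPA buffer (pH 7.5, with protease inhibitors). AR protein levels assessed by Western blot with densitometric quantification.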

On to `CC1(C)[C@H](NC(=O)c2ccc(N3CCN(CCC4CCN(C(=O)CNc5ccc6nnn(C7CCC(=O)NC7=O)c(=O)c6c5)CC4)CC3)cc2)C(C)(C)[C@H]1Oc1ccc(C#N)c(Cl)c1` (stereo partly shown) [Example 25, N-((1r,3r)-3-(3-chloro-4-cyanophenoxy)-2,2,4,4-tetramethylcyclobutyl)-4-(4-(2-(1-((3-(2,6-dioxopiperidin-3-yl)-4-oxo-3,4-dihydrobenzo[d][1,2,3]triazin-6-yl)glycyl)piperidin-4-yl)ethyl)piperazin-1-yl)benzamide], for which the results for the CC50 in series [1] and in series [2] were 2130 nM and 45.7 nM, respectively. Besides, the “Degradation (1 μM treated in LNCaP, % AR remaining)” value in series [3] was 50%.

`CC1(C)[C@H](NC(=O)c2ccc(N3CCN(CCC4CCN(C(=O)C5CN(c6ccc7nnn(C8CCC(=O)NC8=O)c(=O)c7c6)C5)CC4)CC3)cc2)C(C)(C)[C@H]1Oc1ccc(C#N)c(Cl)c1` (stereo partly shown) [Example 27, N-((1r,3r)-3-(3-chloro-4-cyanophenoxy)-2,2,4,4-tetramethylcyclobutyl)-4-(4-(2-(1-(1-(3-(2,6-dioxopiperidin-3-yl)-4-oxo-3,4-dihydrobenzo[d][1,2,3]triazin-6-yl)azetidine-3-carbonyl)piperidin-4-yl)ethyl)piperazin-1-yl)benzamide]: the CC50 in series [1] amounted to 552 nM; in series [2], 37.1 nM. For the same molecule, the “Degradation (1 μM treated in LNCaP, % AR remaining)” value in series [3] was determined as 14%.

For the molecule `CC1(C)[C@H](NC(=O)c2ccc(C#CC3CCN(C(=O)CNc4ccc5nnn(C6CCC(=O)NC6=O)c(=O)c5c4)CC3)cc2)C(C)(C)[C@H]1Oc1ccc(C#N)c(Cl)c1` (stereo partly shown) [Example 143, N-((1r,3r)-3-(3-chloro-4-cyanophenoxy)-2,2,4,4-tetramethylcyclobutyl)-4-((1-((3-(2,6-dioxopiperidin-3-yl)-4-oxo-3,4-dihydrobenzo[d][1,2,3]triazin-6-yl)glycyl)piperidin-4-yl)ethynyl)benzamide], the CC50 worked out at 17.6 nM in series [1] and 6.9 nM in series [2]. The “Degradation (1 μM treated in LNCaP, % AR remaining)” value in series [3] worked out at 18%.

Consider `CC1(C)[C@H](NC(=O)c2ccc(N3CCN(CCC4CCN(c5cccc6nnn(C7CCC(=O)NC7=O)c(=O)c56)CC4)CC3)cc2)C(C)(C)[C@H]1Oc1ccc(C#N)c(Cl)c1` (stereo partly shown) [Example 28, N-((1r,3r)-3-(3-chloro-4-cyanophenoxy)-2,2,4,4-tetramethylcyclobutyl)-4-(4-(2-(1-(3-(2,6-dioxopiperidin-3-yl)-4-oxo-3,4-dihydrobenzo[d][1,2,3]triazin-5-yl)piperidin-4-yl)ethyl)piperazin-1-yl)benzamide], for which the CC50 was 1280 nM in series [1] and 1580 nM in series [2]. In addition, in series [3], the “Degradation (1 μM treated in LNCaP, % AR remaining)” value was 69%.

As for `CC1(C)[C@H](NC(=O)c2ccc(N3CCN(CCCC4CCN(C(=O)C5CN(c6ccc7nnn(C8CCC(=O)NC8=O)c(=O)c7c6)C5)CC4)CC3)cc2)C(C)(C)[C@H]1Oc1ccc(C#N)c(Cl)c1` (stereo partly shown) [Example 47, N-((1r,3r)-3-(3-chloro-4-cyanophenoxy)-2,2,4,4-tetramethylcyclobutyl)-4-(4-(3-(1-(1-(3-(2,6-dioxopiperidin-3-yl)-4-oxo-3,4-dihydrobenzo[d][1,2,3]triazin-6-yl)azetidine-3-carbonyl)piperidin-4-yl)propyl)piperazin-1-yl)benzamide], the CC50 turned out to be 168 nM in series [1] and 23.7 nM in series [2]. Moreover, in series [3], the “Degradation (1 μM treated in LNCaP, % AR remaining)” value is 43.6%.

`CC1(C)C(NC(=O)c2ccc(OCCOCCOCCOCCOCCOCCCCNc3cccc4nnn(C5CCC(=O)NC5=O)c(=O)c34)cc2)C(C)(C)C1Oc1ccc(C#N)c(Cl)c1` (stereo not shown) [Example 5, N-((1r,3r)-3-(3-chloro-4-cyanophenoxy)-2,2,4,4-tetramethylcyclobutyl)-4-((19-((3-(2,6-dioxopiperidin-3-yl)-4-oxo-3,4-dihydrobenzo[d][1,2,3]triazin-5-yl)amino)-3,6,9,12,15-pentaoxanonadecyl)oxy)benzamide] displayed a CC50 in series [1] of 1600 nM. In addition, the “Degradation (1 μM treated in LNCaP, % AR remaining)” value in series [3] came to 6%.

For the molecule `CC1(C)C(NC(=O)c2ccc(OCCOCCOCCOCCOCCOCCCCNc3ccc4nnn(C5CCC(=O)NC5=O)c(=O)c4c3)cc2)C(C)(C)C1Oc1ccc(C#N)c(Cl)c1` (stereo not shown) [Example 17, N-((1r,3r)-3-(3-chloro-4-cyanophenoxy)-2,2,4,4-tetramethylcyclobutyl)-4-((19-((3-(2,6-dioxopiperidin-3-yl)-4-oxo-3,4-dihydrobenzo[d][1,2,3]triazin-6-yl)amino)-3,6,9,12,15-pentaoxanonadecyl)oxy)benzamide], in series [1], the CC50 worked out at 835 nM. Further, the “Degradation (1 μM treated in LNCaP, % AR remaining)” value in series [3] turned out to be 6.7%.

`CC1(C)C(NC(=O)c2ccc(OCCOCCOCCOCCOCCOCCCCNC(=O)CNc3cccc4nnn(C5CCC(=O)NC5=O)c(=O)c34)cc2)C(C)(C)C1Oc1ccc(C#N)c(Cl)c1` (stereo not shown) [Example 14, N-((1r,3r)-3-(3-chloro-4-cyanophenoxy)-2,2,4,4-tetramethylcyclobutyl)-4-((22-((3-(2,6-dioxopiperidin-3-yl)-4-oxo-3,4-dihydrobenzo[d][1,2,3]triazin-5-yl)amino)-21-oxo-3,6,9,12,15-pentaoxa-20-azadocosyl)oxy)benzamide] gave a CC50 in series [1] of 4020 nM. In addition, the “Degradation (1 μM treated in LNCaP, % AR remaining)” value in series [3] is recorded as 35.3%.

`CC1(C)[C@H](NC(=O)c2ccc(N3CCN(CC4CCN(c5cccc6nnn(C7CCC(=O)NC7=O)c(=O)c56)CC4)CC3)cc2)C(C)(C)[C@H]1Oc1ccc(C#N)c(Cl)c1` (stereo partly shown) [Example 7, N-((1r,3r)-3-(3-chloro-4-cyanophenoxy)-2,2,4,4-tetramethylcyclobutyl)-4-(4-((1-(3-(2,6-dioxopiperidin-3-yl)-4-oxo-3,4-dihydrobenzo[d][1,2,3]triazin-5-yl)piperidin-4-yl)methyl)piperazin-1-yl)benzamide] had a CC50 in series [1] of 902 nM. In addition, the “Degradation (1 μM treated in LNCaP, % AR remaining)” value in series [3] is on record as 24.3%.

For `CC1(C)[C@H](NC(=O)c2ccc(C#CC3CCN(C(=O)COc4ccc5nnn(C6CCC(=O)NC6=O)c(=O)c5c4)CC3)cc2)C(C)(C)[C@H]1Oc1ccc(C#N)c(Cl)c1` (stereo partly shown) [Example 144, N-((1r,3r)-3-(3-chloro-4-cyanophenoxy)-2,2,4,4-tetramethylcyclobutyl)-4-((1-(2-((3-(2,6-dioxopiperidin-3-yl)-4-oxo-3,4-dihydrobenzo[d][1,2,3]triazin-6-yl)oxy)acetyl)piperidin-4-yl)ethynyl)benzamide], the CC50 is 144 nM in series [1] and 21 nM in series [2]. Moreover, in series [3], the “Degradation (1 μM treated in LNCaP, % AR remaining)” value was 14.7%.

Turning to `CC1(C)[C@H](NC(=O)c2ccc(-n3cc(C4CCN(C(=O)C5CN(c6ccc7nnn(C8CCC(=O)NC8=O)c(=O)c7c6)C5)CC4)nn3)cc2)C(C)(C)[C@H]1Oc1ccc(C#N)c(Cl)c1` (stereo partly shown) [Example 101, N-((1r,3r)-3-(3-chloro-4-cyanophenoxy)-2,2,4,4-tetramethylcyclobutyl)-4-(4-(1-(1-(3-(2,6-dioxopiperidin-3-yl)-4-oxo-3,4-dihydrobenzo[d][1,2,3]triazin-6-yl)azetidine-3-carbonyl)piperidin-4-yl)-1H-1,2,3-triazol-1-yl)benzamide], the values for the CC50 in series [1] and in series [2] were 7.06 nM and 15.5 nM, respectively. For the same molecule, the “Degradation (1 μM treated in LNCaP, % AR remaining)” value in series [3] amounted to 40%.

Turning to `CC1(C)[C@H](NC(=O)c2ccc(N3CCN(CCC4CCN(c5ccc6nnn(C7CCC(=O)NC7=O)c(=O)c6c5)CC4)CC3)cc2)C(C)(C)[C@H]1Oc1ccc(C#N)c(Cl)c1` (stereo partly shown) [Example 29, N-((1r,3r)-3-(3-chloro-4-cyanophenoxy)-2,2,4,4-tetramethylcyclobutyl)-4-(4-(2-(1-(3-(2,6-dioxopiperidin-3-yl)-4-oxo-3,4-dihydrobenzo[d][1,2,3]triazin-6-yl)piperidin-4-yl)ethyl)piperazin-1-yl)benzamide], the figures for the CC50 in series [1] and in series [2] were 425 nM and 120 nM, respectively. Besides, in series [3], the “Degradation (1 μM treated in LNCaP, % AR remaining)” value turned out to be 6%.

In series [1], `CC1(C)C(NC(=O)c2ccc(OCCOCCOCCOCCOCCNc3cccc4nnn(C5CCC(=O)NC5=O)c(=O)c34)cc2)C(C)(C)C1Oc1ccc(C#N)c(Cl)c1` (stereo not shown) [Example 2, N-((1r,3r)-3-(3-chloro-4-cyanophenoxy)-2,2,4,4-tetramethylcyclobutyl)-4-((14-((3-(2,6-dioxopiperidin-3-yl)-4-oxo-3,4-dihydrobenzo[d][1,2,3]triazin-5-yl)amino)-3,6,9,12-tetraoxatetradecyl)oxy)benzamide] returned a CC50 of 4930 nM. In addition, the “Degradation (1 μM treated in LNCaP, % AR remaining)” value in series [3] is on record as 100%.
